≈ marks a conversion by molar mass, not a printed value. Like-named read-outs stand apart in the source and are kept apart here. Numbered stars: 1 amine (or outer) side, 2 acyl side, 3 side chain; on linkers, the order of the positions; unused ones are H or OH. Bridge positions count the residues as written; N and C are the ends. Square brackets hold non-standard residues; d marks the D form. Peptide text beside a SMILES is read from it. * marks the point of attachment. Lys(Me,(CH2)4NMe(CH2)5CO) = CN(CCCCCC(=O)[*:3])CCCCN(C)CCCC[C@H](N[*:1])C(=O)[*:2]; Lys(Me,(CH2)4NMe(CH2)4CO) = CN(CCCCC(=O)[*:3])CCCCN(C)CCCC[C@H](N[*:1])C(=O)[*:2]; Trp(7-Me) = Cc1cccc2c(C[C@H](N)C(=O)O)c[nH]c12; Trp(1-Me) = Cn1cc(C[C@H](N)C(=O)O)c2ccccc21; NH(2-(3-pyridyl)ethyl) = c1cncc(CCN*)c1; αMeLys(Me2) = CN(C)CCCC[C@](C)(N)C(=O)O; 2Nal = N[C@@H](Cc1ccc2ccccc2c1)C(=O)O; 3Pal = N[C@@H](Cc1cccnc1)C(=O)O; Thp = NC1(C(=O)O)CCOCC1; Me2NCH2CH2 = CN(C)CC*; Aib = CC(C)(N)C(=O)O; Sar = CNCC(=O)O
What was measured:
[1] = Solubility of peptide compounds in buffer formulations (Table 5); format: physicochemical; details: target 1 mg/ml
Description: Prior to the solubility measurement of a peptide batch, its purity was determined through UHPLC/MS method A.
(§1) For solubility testing the target concentration was 1 mg pure compound/ml. Therefore, solutions from solid samples were prepared in a buffer system at a concentration of 1 mg/mL compound. The solid samples were obtained by drying down aliquots of a freshly prepared dimethyl sulfoxide stock solution using a THERMO SPEEDVAC vacuum centrifuge. The dry down time was 3 hours.
The following buffer systems were applied: • Solubility buffer system A) 50 mM HCl pH 1.2 • Solubility buffer system B) 50 mM phosphate buffer pH 6.5 • Solubility buffer system C) 50 mM phosphate buffer pH 7.4 • UHPLC-UV was performed using analytical method A after 2 hours of gentle agitation from the filtered (0.45 μm filter plates) solutions, which were obtained by 10 mins of centrifugation forced filtration at 1500 RCF (relative centrifugal acceleration).
The solubility was determined by the comparison of the UV peak area of 2 μL-injections of a buffered sample diluted 1:10 with a standard curve of a dimethyl sulfoxide reference sample of known concentration. The different extinction coefficients were taken into account for the calculation.

[2] = Protease stability in simulated intestinal fluids (FaSSIF) (Table 7); format: in vitro ADME; details: fassif with pancreatin, 37° C.
Description: (§2) Studies were carried out in simulated intestinal fluid (SIF) and simulated gastric fluid (SGF) to evaluate gastric stability of the peptide compounds disclosed herein.
Similarly, the term “Pancreatin-SIF” refers to a solution of simulated intestinal fluid containing pancreatin whereas “SIF-media” refers to a solution of simulated intestinal fluid without pancreatin. Pancreatin-SIF was prepared by dissolving 1 mg Pancreatin (MP Biomedicals) in 10 mL SIF media concentrate (PROSENSE).
(§3) Peptide compounds were first dissolved at 1 mM stock concentration in 0.01 HCl (+/−10% of DMSO) and were than diluted further with water to a stock concentration of 20 μM. Final peptide concentration in the incubation was 1 μM.
(§4) To 76 μL of the Pepsin-SGF buffer, 4 μL of the 20 μM peptide stock solution was added and incubated at 37° C. At each timepoint (0, 60, 120 and 240 minutes) the reaction was quenched with addition of 80 μL Ethanol (0.1% HCOOH). The samples were centrifuged for 20 minutes and an aliquot of the supernatant 100 μL were transferred to a LoBind-MTP plate and analyzed by LCMS/MS. The peak area response was calculated at each time point for each test compound. As internal reference, the peak area response of the same test compound at T0 was calculated. The percentage remaining at each timepoint was calculated based on the peak area response ratio of the test compound at T0. Time 0 was set to 100%, and all later timepoints were calculated relative to time 0.

[3] = Protease stability in simulated gastric fluids (FaSSGF) (Table 7); format: in vitro ADME; details: fassgf with pepsin, 60 min, 37° C., read-out: Remaining percentage of peptide compound, FaSSGF 60 (min)
Description: as §2
For clarification, the term “Pepsin-SGF” refers to a solution of simulated gastric fluid containing pepsin whereas “SGF media” refers to a solution of simulated gastric fluid without pepsin. Pepsin-SGF was prepared by dissolving 320 mg Pepsin (Merck Millipore) in 100 mL SGF media concentrate (PROSENSE).
as §3
as §4, with “(0,1%” for “(0.1%”
as §4

[4] = tested on: IL-23 induced STAT3 signaling (IL-23 receptor) in HEK-Blue IL-23 cells; experiment: Inhibition of IL-23 induced STAT3 signaling in HEK-Blue IL-23 cells, SEAP reporter (Table 9); format: cell-based; details: human IL23 0.25 ng/ml, overnight, read-out: Inhibition of IL-23 induced pSTAT3 (IC50 nM)
From the text: HEK-Blue™ IL-23 cells (INVIVOGEN) are designed for the detection of bioactive human (hIL-23) and murine IL-23 (mIL-23) by monitoring the activation of the STAT3 pathway. Binding of IL-23 to its receptor on the surface of HEK-Blue™ IL-23 cells triggers a signaling cascade leading to the activation of STAT3 and the subsequent production of secreted embryonic alkaline phosphatase (SEAP). This can be readily assessed using QUANTI-Blue™ Solution, a SEAP detection reagent.
HEK-Blue™ IL-23 cells were cultured as described by INVIVOGEN.
On the first day of assay 10 μL of the HEK-BLUE IL23 cell suspension (final concentration: 10,000 cells/well) and 10 μl of serially diluted peptides solutions were dispensed into a 384-well assay plate. After pre-incubation of the reaction mixtures at 37° C./5% CO2/95% humidity for 60 minutes, 10 μl of the humanIL23 cytokine (final concentration: 0.25 ng/ml) was added to each well for the STAT3 signaling activation. The plate was incubated overnight at 37° C./5% CO2/95% humidity.
On the second day 20 μl per well of QUANTI-BLUE detection solution (prepared according to the manufacture instruction) was dispensed into a new 384-well plate and followed by the transfer of 5 μl supernatant of the overnight incubated cell/sample mixtures. After incubation of 45 min at room temperature signals were measured with PHERASTAR (BMG) at OD 620-655 nm.
Dose response data were fitted with XLfit.

[5] = Chemical stability (relative purity loss) of peptide compounds in buffer formulations (Table 6); format: physicochemical; details: 2° C. and 37° C.
Description: Purity of a peptide batch was determined through UHPLC/MS method A prior to chemical stability measurement.
as §1, with “stability assessment,” for “solubility testing”, “0.5” for “1”, “acetonitrile” for “dimethyl sulfoxide”
The following buffer systems were applied: • Solubility buffer system A): 50 mM HCl pH 1.2+Acetonitrile (3:1). • Solubility buffer system B): 50 mM phosphate buffer pH 6.5+Acetonitrile (3:1). • Solubility buffer system C): 50 mM phosphate buffer pH 7.4+Acetonitrile (3:1). • Prepared solutions were stored for 24 hours at 2° C. and 37° C.
After this time course, the samples were centrifuged for 15 min at 2500 RCF to create a 1:5 dilution of the supernatant. Then 2 μl of the dilution were analyzed with UHPLC-UV applying method A.
The chemical stability was rated through the relative loss of purity calculated by the equation: […]

[6] = Buffer pH 1.1 (head; method: 50 mM HCl pH 1.2), 2 h agitation, read-out: Solubility, Buffer pH 1.1
[7] = aqueous buffer, 50 mM phosphate buffer pH 6.5, 2 h agitation, read-out: Solubility, Buffer pH 6.5
[8] = aqueous buffer, 50 mM phosphate buffer pH 7.4, 2 h agitation, read-out: Solubility, Buffer pH 7.4

Row | Compound | solubility at 2 h [1, 6] | solubility at 2 h [1, 7] | solubility at 2 h [1, 8] | remaining at 1 h, 1 µM ([2]; 60 min, read-out: Remaining percentage of peptide compound, FaSSIF 60 (min)) | remaining at 2 h, 1 µM ([2]; 120 min, read-out: Remaining percentage of peptide compound, FaSSIF 120 (min)) | remaining at 4 h, 1 µM ([2]; 240 min, read-out: Remaining percentage of peptide compound, FaSSIF 240 (min)) | remaining at 1 h, 1 µM [3] | IC50 [4] | degraded at 24 h ([5]; 50 mM phosphate buffer pH 6.5 + acetonitrile (3:1), read-out: Chemical stability (relative purity loss), Buffer pH 6.5) | degraded at 24 h ([5]; 50 mM phosphate buffer pH 7.4 + acetonitrile (3:1), read-out: Chemical stability (relative purity loss), Buffer pH 7.4) | degraded at 24 h ([5]; 50 mm hcl + acetonitrile, Buffer pH 1.1 (head; method: 50 mM HCl pH 1.2 + acetonitrile 3:1), read-out: Chemical stability (relative purity loss), Buffer pH 1.1)
1 | CN(C)CCOc1ccc(C[C@@H]2NC(=O)C3(CCOCC3)NC(=O)[C@H](CCC(N)=O)NC(=O)[C@H](Cc3cn(C)c4ccccc34)NC(=O)CCCCCN(C)CCCCN(C)CCCC[C@@H](C(=O)N[C@@H](CC(N)=O)C(=O)N[C@@H](Cc3cccnc3)C(=O)N(C)CC(N)=O)NC(=O)C(C)(C)NC(=O)[C@H](Cc3ccc4ccccc4c3)NC2=O)cc1 [compound 33] ([Trp(1-Me)]Q[Thp]Y(Me2NCH2CH2)[2Nal][Aib][Lys(Me,(CH2)4NMe(CH2)5CO)]N[3Pal][Sar]-NH2; lactam N-7) | ≥ 1000 µg/mL | ≥ 1120 µg/mL | ≥ 950 µg/mL | 97% | 94% | 94% | 100% | 0.8 nM |  |  | 
2 | CN(C)CCCC[C@]1(C)NC(=O)[C@H](Cc2ccc3ccccc3c2)NC(=O)[C@H](Cc2ccc(OCCN(C)C)cc2)NC(=O)C2(CCOCC2)NC(=O)[C@H](CCC(N)=O)NC(=O)[C@H](Cc2cn(C)c3ccccc23)NC(=O)CCCCN(C)CCCCN(C)CCCC[C@@H](C(=O)N[C@@H](CO)C(=O)N[C@@H](Cc2cccnc2)C(=O)N(C)CC(N)=O)NC1=O [compound 45] ([Trp(1-Me)]Q[Thp]Y(Me2NCH2CH2)[2Nal][αMeLys(Me2)][Lys(Me,(CH2)4NMe(CH2)4CO)]S[3Pal][Sar]-NH2; lactam N-7) | ≥ 1060 µg/mL | ≥ 1030 µg/mL | ≥ 1030 µg/mL |  |  |  |  | 7.83 nM |  |  | 
3 | CC(=O)NCCCC[C@@H]1NC(=O)[C@H](Cc2c[nH]c3c(C)cccc23)NC(=O)CCCCN(C)CCCCN(C)CCCC[C@@H](C(=O)NCC(=O)NCCc2cccnc2)NC(=O)C2(CCOCC2)NC(=O)[C@H](Cc2ccc3ccccc3c2)NC(=O)[C@H](Cc2ccc(OCCN(C)C)cc2)NC(=O)C2(CCOCC2)NC1=O [compound 48] ([Trp(7-Me)]K(Ac)[Thp]Y(Me2NCH2CH2)[2Nal][Thp][Lys(Me,(CH2)4NMe(CH2)4CO)]G-{NH(2-(3-pyridyl)ethyl)}; lactam N-7) | ≥ 980 µg/mL | 850 µg/mL (≈ 550 µM) | 810 µg/mL (≈ 524 µM) |  |  |  |  | 10.4 nM |  |  | 
4 | CC(=O)NCCCC[C@@H]1NC(=O)[C@H](Cc2cn(C)c3ccccc23)NC(=O)CCCCCN(C)CCCCN(C)CCCC[C@@H](C(=O)NCC(=O)NCCc2cccnc2)NC(=O)C(C)(C)NC(=O)[C@H](Cc2ccc3ccccc3c2)NC(=O)[C@H](Cc2ccc(OCCN(C)C)cc2)NC(=O)C2(CCOCC2)NC1=O [compound 23] ([Trp(1-Me)]K(Ac)[Thp]Y(Me2NCH2CH2)[2Nal][Aib][Lys(Me,(CH2)4NMe(CH2)5CO)]G-{NH(2-(3-pyridyl)ethyl)}; lactam N-7) | ≥ 970 µg/mL | ≥ 890 µg/mL | ≥ 880 µg/mL |  |  |  |  | 39.2 nM |  |  | 
5 | CC(=O)NCCCC[C@@H]1NC(=O)[C@H](Cc2c[nH]c3c(C)cccc23)NC(=O)CCCCN(C)CCCCN(C)CCCC[C@@H](C(=O)N[C@@H](CO)C(=O)N[C@@H](Cc2cccnc2)C(=O)N(C)CC(N)=O)NC(=O)C(C)(C)NC(=O)[C@H](Cc2ccc3ccccc3c2)NC(=O)[C@H](Cc2ccc(OCCN(C)C)cc2)NC(=O)C2(CCOCC2)NC1=O [compound 39] ([Trp(7-Me)]K(Ac)[Thp]Y(Me2NCH2CH2)[2Nal][Aib][Lys(Me,(CH2)4NMe(CH2)4CO)]S[3Pal][Sar]-NH2; lactam N-7) | ≥ 1000 µg/mL | ≥ 890 µg/mL | 850 µg/mL (≈ 516 µM) |  |  |  |  | 1.78 nM | 0% | 0% | 3.7%
6 | CC(=O)NCCCC[C@@H]1NC(=O)[C@H](Cc2c[nH]c3c(C)cccc23)NC(=O)CCCCN(C)CCCCN(C)CCCC[C@@H](C(=O)N[C@@H](CO)C(=O)N[C@@H](Cc2cccnc2)C(=O)N(C)CC(N)=O)NC(=O)[C@](C)(CCCCN(C)C)NC(=O)[C@H](Cc2ccc3ccccc3c2)NC(=O)[C@H](Cc2ccc(OCCN(C)C)cc2)NC(=O)C2(CCOCC2)NC1=O [compound 44] ([Trp(7-Me)]K(Ac)[Thp]Y(Me2NCH2CH2)[2Nal][αMeLys(Me2)][Lys(Me,(CH2)4NMe(CH2)4CO)]S[3Pal][Sar]-NH2; lactam N-7) | ≥ 1360 µg/mL | ≥ 1130 µg/mL | ≥ 1120 µg/mL |  |  |  |  | 1.19 nM |  |  | 
7 | CN(C)CCOc1ccc(C[C@@H]2NC(=O)C3(CCOCC3)NC(=O)[C@H](CCC(N)=O)NC(=O)[C@H](Cc3cn(C)c4ccccc34)NC(=O)CCCCCN(C)CCCCN(C)CCCC[C@@H](C(=O)NCC(=O)NCCc3cccnc3)NC(=O)C(C)(C)NC(=O)[C@H](Cc3ccc4ccccc4c3)NC2=O)cc1 [compound 22] ([Trp(1-Me)]Q[Thp]Y(Me2NCH2CH2)[2Nal][Aib][Lys(Me,(CH2)4NMe(CH2)5CO)]G-{NH(2-(3-pyridyl)ethyl)}; lactam N-7) | ≥ 1020 µg/mL | ≥ 920 µg/mL | 330 µg/mL (≈ 224 µM) |  |  |  |  | 24.8 nM |  |  | 

From patent US20260297129A1, “PEPTIDES AS SELECTIVE IL-23 RECEPTOR INHIBITORS” (SANOFI, priority 2023, published 2026)
